Laboratory results published in US4628062A, “1,4-naphthoquinone derivatives having anti-inflammatory action” (priority 1983, dated 1986).
Like-named read-outs stand apart in the source and are kept apart here.

Columns and labels:
cyclooxygenase = molecular target: T1, cyclooxygenase (Mus musculus, UniProt P22437); assay: inhibition of arachidonic acid metabolism via the cyclooxygenase route (Brune et al.); type: biochemical; details: read-out: % inhibition of cyclooxygenase at 1 × 10^-5 mol/l
T1 construct: endogenous in cells
T1 sequence (P22437 27-602): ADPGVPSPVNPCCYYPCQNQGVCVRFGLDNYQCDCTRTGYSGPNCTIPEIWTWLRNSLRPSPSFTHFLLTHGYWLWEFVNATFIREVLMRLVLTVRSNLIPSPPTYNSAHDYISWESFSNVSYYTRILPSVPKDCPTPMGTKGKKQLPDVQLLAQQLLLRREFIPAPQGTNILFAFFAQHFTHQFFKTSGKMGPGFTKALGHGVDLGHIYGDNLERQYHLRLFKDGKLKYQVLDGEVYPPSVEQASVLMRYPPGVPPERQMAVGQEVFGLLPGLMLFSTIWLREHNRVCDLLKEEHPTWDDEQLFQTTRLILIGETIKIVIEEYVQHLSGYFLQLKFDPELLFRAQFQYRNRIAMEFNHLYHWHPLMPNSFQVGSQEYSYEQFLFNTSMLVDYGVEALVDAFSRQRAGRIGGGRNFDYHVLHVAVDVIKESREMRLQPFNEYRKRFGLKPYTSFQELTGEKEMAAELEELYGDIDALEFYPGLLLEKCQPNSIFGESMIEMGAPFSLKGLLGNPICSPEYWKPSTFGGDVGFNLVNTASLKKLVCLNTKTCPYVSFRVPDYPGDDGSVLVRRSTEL

[1] = tested on: oedema induced by carrageenan in the rat paw; assay: inhibition of carrageenan-induced oedema in the rat paw (Winter et al., modified); type: in vivo; details: po, read-out: % inhibition of carrageenan oedema at 2.5 mg/kg orally
lipoxygenase = molecular target: T2, lipoxygenase (Rattus norvegicus, UniProt P12527); assay: inhibition of arachidonic acid metabolism via the lipoxygenase route: LTB4 release from PMN of the rat after stimulation with Ca ionophor, reverse phase HPLC; type: cell-based; details: read-out: % inhibition of lipoxygenase at 1 × 10^-5 mol/l
T2 construct: release of LTB4 from neutrophilic granulocytes (PMN) of the rat; endogenous in cells; host or cells: rat neutrophilic granulocytes (PMN)
T2 sequence (P12527 1-673): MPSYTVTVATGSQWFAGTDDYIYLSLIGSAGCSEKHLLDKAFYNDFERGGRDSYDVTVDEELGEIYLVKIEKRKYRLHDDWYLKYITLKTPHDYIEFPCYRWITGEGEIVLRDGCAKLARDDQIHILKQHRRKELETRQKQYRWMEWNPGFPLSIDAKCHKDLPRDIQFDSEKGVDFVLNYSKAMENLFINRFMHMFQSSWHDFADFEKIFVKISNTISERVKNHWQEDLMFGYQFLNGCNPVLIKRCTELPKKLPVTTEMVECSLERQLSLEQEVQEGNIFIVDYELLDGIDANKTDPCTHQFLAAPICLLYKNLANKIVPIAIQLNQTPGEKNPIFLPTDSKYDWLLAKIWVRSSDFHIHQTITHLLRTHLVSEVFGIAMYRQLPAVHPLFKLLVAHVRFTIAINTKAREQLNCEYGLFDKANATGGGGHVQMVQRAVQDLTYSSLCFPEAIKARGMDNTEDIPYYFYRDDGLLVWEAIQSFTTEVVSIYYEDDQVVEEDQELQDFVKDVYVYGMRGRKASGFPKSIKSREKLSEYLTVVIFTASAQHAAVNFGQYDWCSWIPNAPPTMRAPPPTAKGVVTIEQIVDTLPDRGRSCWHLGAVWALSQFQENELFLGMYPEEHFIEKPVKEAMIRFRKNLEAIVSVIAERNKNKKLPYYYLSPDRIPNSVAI

PMN = assay: inhibition of aggregation of PMN stimulated by LTB4 (Cunningham et al.); type: cell-based; details: 1 × 10^-4 mol/l
[2] = rat paw, 2.5 mg/kg orally, λ-carrageenan 0.25% suspension in physiological saline
[3] = 1 × 10^-5 mol/l, LTB4 release from rat PMN, Ca ionophor

NC1=CC(=O)c2ccccc2C1=O [Compound 5]
inhibition at 10 µM (cyclooxygenase): 55%
inhibition in vivo at 2.5 mg/kg ([1]; Rattus norvegicus): 48%
inhibition at 10 µM (lipoxygenase): 100%

CC1=C(SCC(=O)NC(C)C)C(=O)c2ccccc2C1=O [Compound 10]
inhibition at 10 µM (cyclooxygenase): 89%
inhibition in vivo at 2.5 mg/kg [1, 2]: 45%
inhibition at 10 µM (lipoxygenase; [3]): 100%
inhibition at 100 µM (PMN): 95%

COCCOC1=CC(=O)c2ccccc2C1=O [Compound 3]
inhibition at 10 µM (cyclooxygenase): 45%
inhibition in vivo at 2.5 mg/kg [1, 2]: 38%
inhibition at 10 µM (lipoxygenase; [3]): 100%

CC1=C(SCC(=O)O)C(=O)c2ccccc2C1=O [Compound 8]
inhibition at 10 µM (cyclooxygenase): 72%
inhibition in vivo at 2.5 mg/kg [1, 2]: 41%
inhibition at 10 µM (lipoxygenase; [3]): 100%
inhibition at 100 µM (PMN): 34%

COC1=C(OC)C(=O)c2ccccc2C1=O [Compound 4]
inhibition at 10 µM (cyclooxygenase): 37%
inhibition in vivo at 2.5 mg/kg [1, 2]: 36%
inhibition at 10 µM (lipoxygenase; [3]): 100%
inhibition at 100 µM (PMN): 79%

C=CCNC1=CC(=O)c2cc(S(N)(=O)=O)ccc2C1=O [Compound 12, 2-Allylamino-6-sulphamoyl-1,4-naphthoquinone]
inhibition at 10 µM (cyclooxygenase): 38%
inhibition in vivo at 2.5 mg/kg [1, 2]: 39%
inhibition at 10 µM (lipoxygenase; [3]): 100%
inhibition at 100 µM (PMN): 72%

O=C1C=C(O)C(=O)c2ccccc21 [Compound 1]
inhibition at 10 µM (cyclooxygenase): 31%
inhibition in vivo at 2.5 mg/kg ([1]; Rattus norvegicus): 34%
inhibition at 10 µM (lipoxygenase): 70%

COC1=CC(=O)c2ccccc2C1=O [Compound 2]
inhibition at 10 µM (cyclooxygenase): 78%
inhibition in vivo at 2.5 mg/kg [1, 2]: 29%
inhibition at 10 µM (lipoxygenase; [3]): 98%
inhibition at 100 µM (PMN): 76%

CCOC1=C(NC(C)=O)C(=O)c2ccccc2C1=O [Compound 14, 2-Acetylamino-3-ethoxy-1,4-naphthoquinone]
inhibition in vivo at 2.5 mg/kg [1, 2]: 49%
inhibition at 10 µM (lipoxygenase; [3]): 100%

O=C(CSC1=C(SCC(=O)NCCO)C(=O)c2ccccc2C1=O)NCCO [Compound 11]
inhibition at 10 µM (cyclooxygenase): 50%
inhibition in vivo at 2.5 mg/kg [1, 2]: 45%
inhibition at 10 µM (lipoxygenase; [3]): 80%
inhibition at 100 µM (PMN): 36%

CC(=O)NC1=CC(=O)c2ccccc2C1=O [Compound 7]
inhibition at 10 µM (cyclooxygenase): 65%
inhibition in vivo at 2.5 mg/kg [1, 2]: 32%
inhibition at 10 µM (lipoxygenase; [3]): 100%
inhibition at 100 µM (PMN): 49%

CNC(=O)CSC1=C(C)C(=O)c2ccccc2C1=O [Compound 9]
inhibition at 10 µM (cyclooxygenase): 89%
inhibition in vivo at 2.5 mg/kg [1, 2]: 25%
inhibition at 10 µM (lipoxygenase; [3]): 100%
inhibition at 100 µM (PMN): 100%

CCC(=O)NC1=C(OCCOC)C(=O)c2ccccc2C1=O [Compound 13, 2-Propionylamino-3-(2-methoxyethoxy)-1,4-naphthoquinone]
inhibition in vivo at 2.5 mg/kg [1, 2]: 48%
inhibition at 10 µM (lipoxygenase; [3]): 100%

NC1=CC(=O)c2cc(S(N)(=O)=O)ccc2C1=O [Compound 6]
inhibition at 10 µM (cyclooxygenase): 65%
inhibition in vivo at 2.5 mg/kg [1, 2]: 39%
inhibition at 10 µM (lipoxygenase; [3]): 100%
inhibition at 100 µM (PMN): 77%
